Measurements taken from ChEMBL document CHEMBL4007391, “Tackling Fungal Resistance by Biofilm Inhibitors” (J Med Chem, 2017).
Values after ≈ are worked out from the molar mass of the structure shown. Counter-ions that a name gives are not always drawn.

Experiments:
Candida albicans [1] = assay: Antibiofilm activity against Candida albicans SC5314 clinical isolates after 24 hrs by XTT assay; type: functional
Candida albicans [2] = assay: Antibiofilm activity against Candida albicans CAF2-1 after 48 hrs by Alamar blue assay; type: functional; settings: CAF2-1, 48 h
Candida albicans [3] = assay: Antibiofilm activity against Candida albicans SC5314 after 48 hrs by Alamar blue assay; type: functional; settings: SC5314, 48 h
Candida albicans [4] = assay: Antibiofilm activity against fluconazole-resistant Candida albicans 29E clinical isolates after 48 hrs by Alamar blue assay; type: functional
Candida albicans [5] = assay: Antibiofilm activity against Candida albicans DAY185 after 24 hrs by XTT assay; type: functional
Candida albicans [6] = assay: Antifungal activity against Candida albicans DAY185 by CLSI method; type: functional
Candida albicans [7] = assay: Antifungal activity against fluconazole-resistant Candida albicans by broth microdilution assay; type: functional
Candida albicans [8] = assay: Antifungal activity against fluconazole-susceptible Candida albicans by broth microdilution assay; type: functional
Candida albicans [9] = assay: Inhibition of biofilm formation of Candida albicans ATCC 90028 after 48 hrs in presence of fluconazole by XTT assay; type: functional
Candida albicans [10] = assay: Inhibition of biofilm formation of Candida albicans ATCC 90028 after 48 hrs in presence of voriconazole by XTT assay; type: functional
Candida albicans [11] = assay: Disruption of biofilm of Candida albicans ATCC 90028 after 48 hrs in presence of fluconazole by XTT assay; type: functional
Candida albicans [12] = assay: Disruption of biofilm of Candida albicans ATCC 90028 after 48 hrs in presence of voriconazole by XTT assay; type: functional
Candida albicans [13] = assay: Antibiofilm activity against Candida albicans SC5314 after 24 hrs by XTT assay; type: functional; settings: SC5314, 24 h
[14] = Cytotoxicity against human HepG2 assessed as reduction in cell viability after 24 hrs by CellTiter-Glo luminescent assay; type: cell-based; settings: HepG2 cells
Candida [15] = assay: Antifungal activity against Candida after 48 hrs by broth microdilution assay; type: functional
Candida [16] = assay: Antifungal activity against drug-resistant Candida spp. clinical isolates after 48 hrs by broth microdilution assay; type: functional
Candida albicans [17] = assay: Antibiofilm activity against Candida albicans SC5314 after 24 hrs in presence of miconazole by Cell-Titer Blue assay; type: functional
[18] = Toxicity in mouse; type: organism-based; settings: in vivo
Candida albicans [19] = assay: Antibiofilm activity against Candida albicans SC5314 after 24 hrs by Cell-Titer Blue assay; type: functional
Candida albicans [20] = assay: Antifungal activity against Candida albicans KCTC 1940 clinical isolates after 7 days by two fold serial dilution method; type: functional; settings: KCTC 1940, 168 h
Cryptococcus neoformans = assay: Antifungal activity against Cryptococcus neoformans KCTC 7224 clinical isolates after 7 days by two fold serial dilution method; type: functional; settings: KCTC 7224, 168 h
[21] = test system: Trichophyton mentagrophytes; assay: Antifungal activity against Trichophyton mentagrophytes KCTC 6077 clinical isolates after 7 days by two fold serial dilution method; type: functional; settings: KCTC 6077, 168 h
Candida albicans [22] = assay: Antibiofilm activity against Candida albicans CAIF-100 after 24 hrs by Cell-Titer Blue assay; type: functional

Oc1c(I)cc(Cl)c2cccnc12 [CLIOQUINOL]
IC50 (Candida albicans [1]; Candida albicans, SC5314, 24 h): 2.6 µM

Oc1c(Cl)cc(Cl)c2cccnc12 [CHLOROXINE]
IC50 (Candida albicans [2]): 1.2 to 13.2 µM | IC50 (Candida albicans [3]): 1.2 to 13.2 µM | IC50 (Candida albicans [4]): 1.2 to 13.2 µM | IC50 (Candida albicans [1]; Candida albicans, SC5314, 24 h): 2.7 µM

THIMEROSAL
IC50 (Candida albicans [1]): 0.2 µM

CCCCCCCCCC(=O)C1C(=O)N[C@@H](CC(C)C)C(=O)N[C@H](C)C(=O)N2CCC[C@H]2C(=O)N[C@@H](C(C)C)C(=O)N[C@@H](CC)C(=O)NCC1O (some centres undefined)
IC50 (Candida albicans [5]): 5.3 µM | MIC (Candida albicans [6]): > 200 µM

COc1ccc2cc1Oc1ccc(cc1)C[C@H]1c3cc(c(OC)cc3CCN1C)Oc1c(OC)c(OC)cc3c1[C@H](C2)N(C)CC3 [FANCHININ]
MIC80 (Candida albicans [7]): 64 µg/mL (≈ 103 µM) | MIC80 (Candida albicans [8]): 64 µg/mL (≈ 103 µM)

CCN(CC)CCCC(C)Nc1ccnc2cc(Cl)ccc12 (centres undefined) [CHLOROQUINE]
fractional inhibitory concentration index (FICI) (Candida albicans [9]): 0.156 - 0.25 | fractional inhibitory concentration index (FICI) (Candida albicans [10]): 0.156 - 0.25 | fractional inhibitory concentration index (FICI) (Candida albicans [11]): 0.156 - 0.25 | fractional inhibitory concentration index (FICI) (Candida albicans [12]): 0.156 - 0.25

CCc1oc2ccccc2c1C(=O)c1cc(Br)c(O)c(Br)c1 [BENZBROMARONE]
IC50 (Candida albicans [1]; Candida albicans, SC5314, 24 h): 2 µM

CCCCCCCCCC(=O)[C@@H]1C(=O)N[C@@H](CC(C)C)C(=O)N[C@H](C)C(=O)N2CCC[C@H]2C(=O)N[C@@H]([C@@H](C)CC)C(=O)N[C@H]2CS[C@H]1CNC2=O
IC50 (Candida albicans [5]): 9.1 µM | MIC (Candida albicans [6]): > 200 µM

CCC(CO)N1C(C)=CC(=Cc2sc3ccccc3[n+]2Cc2ccccc2)C=C1C (centres undefined)
IC50 (Candida albicans [2]): 1.7 to 119 µM | IC50 (Candida albicans [3]): 1.7 to 119 µM | IC50 (Candida albicans [4]): 1.7 to 119 µM

CC(C)c1ccc(CN2CCCC3(CCN(CC4CCSCC4)C3)C2=O)cc1 (centres undefined)
IC50 (Candida albicans [13]): 3.36 µM | CC50 at 24 h [14]: 62.7 to 104 µM

CN(C)c1ccc(/C=C/c2cc(C(C)(C)C)[o+]c(C(C)(C)C)c2)cc1.[O-][Cl+3]([O-])([O-])[O-]
MIC (Candida [15]): 0.2 to 6.25 µg/mL | MIC (Candida [16]): 0.5 to 1 µg/mL

C[C@H]1[C@@H](O)O[C@@H]2O[C@@]3(C)CC[C@H]4[C@H](C)CC[C@@H]1[C@@]24OO3 [ARTENIMOL]
fractional inhibitory concentration index (FICI) (Candida albicans [17]): 0.145

NC1C2CC3CC(C2)CC1C3 (centres undefined)
LD50 [18]: 250 mg/kg

N=C(NCCCCCCNC(=N)NC(=N)Nc1ccc(Cl)cc1)NC(=N)Nc1ccc(Cl)cc1 [CHLORHEXIDINE]
IC50 (Candida albicans [1]; Candida albicans, SC5314, 24 h): 21.8 µM

Cc1c(CN2CCC3(CCCN(Cc4ccc(C(C)C)cc4)C3=O)C2)cnn1C (centres undefined)
IC50 (Candida albicans [13]): 3.15 µM | CC50 at 24 h [14]: 62.7 to 104 µM

CCN1/C(=C\c2ccc3ccccc3[n+]2CC)Sc2cc(C)ccc21
IC50 (Candida albicans [2]): 2.8 to 82.1 µM | IC50 (Candida albicans [3]): 2.8 to 82.1 µM | IC50 (Candida albicans [4]): 2.8 to 82.1 µM

CC[C@@]1([C@@H]2O[C@@H]([C@H]3O[C@@](O)(CO)[C@H](C)C[C@@H]3C)C[C@@H]2C)CC[C@H]([C@]2(C)CCC3(C[C@H](O)[C@@H](C)[C@@H]([C@@H](C)[C@@H](OC)[C@H](C)C(=O)O)O3)O2)O1 (some centres undefined)
IC50 (Candida albicans [1]; Candida albicans, SC5314, 24 h): 6.4 µM

O=[N+]([O-])c1ccc(O)c2ncccc12 [NITROXOLINE]
IC50 (Candida albicans [2]): 1 to 5.8 µM | IC50 (Candida albicans [3]): 1 to 5.8 µM | IC50 (Candida albicans [4]): 1 to 5.8 µM | MBEC2 (Candida albicans [19]): 3.1 µM

CCN1/C(=C/c2ccc3cc(C)ccc3[n+]2CC)Sc2cc(C)c(C)cc21
IC50 (Candida albicans [2]): 231 to 268 µM | IC50 (Candida albicans [3]): 231 to 268 µM | IC50 (Candida albicans [4]): 231 to 268 µM

C[C@H]1[C@H](OC(=O)CCC(=O)O)O[C@@H]2O[C@@]3(C)CC[C@H]4[C@H](C)CC[C@@H]1[C@@]24OO3 [ARTESUNATE]
fractional inhibitory concentration index (FICI) (Candida albicans [17]): <0.069

CCCCC(CC)CNC(=N)NC(=N)NCCCCCCNC(=N)NC(=N)NCC(CC)CCCC (centres undefined) [ALEXIDINE DIHYDROCHLORIDE]
IC50 (Candida albicans [1]; Candida albicans, SC5314, 24 h): 5.4 µM

C[C@@H]1CC[C@H]2[C@@H](C)C(=O)O[C@@H]3O[C@@]4(C)CC[C@@H]1[C@]32OO4 [ARTEMISININ]
fractional inhibitory concentration index (FICI) (Candida albicans [17]): 0.186

C=CCc1ccc(O)c(-c2cc(CC=C)ccc2O)c1 [MAGNOLOL]
MIC (Candida albicans [20]): 16 to 32 µg/mL (≈ 60.1 to 120 µM) | MIC (Cryptococcus neoformans): 25 µg/mL (≈ 93.9 µM) | MIC [21]: 25 µg/mL (≈ 93.9 µM)

CC(C)c1ccc(CN2CCCC3(CCN(Cc4cccnc4)C3)C2=O)cc1 (centres undefined)
IC50 (Candida albicans [13]): 4.59 µM | CC50 at 24 h [14]: 62.7 to 104 µM

CCN(CC)CCOC(=O)C1(C2CCCCC2)CCCCC1.Cl [DICYCLOMINE HYDROCHLORIDE]
MBIC50 (Candida albicans [22]): 60 µM
